In ChEMBL document CHEMBL5335821, “Antiviral Protein-Protein Interaction Inhibitors” (J Med Chem, 2024) one finds IC50, EC50 and Activity data, which are given here for 17 compounds.

The test system of assay [1] is Hepatitis C virus. Nature of the assay: Antiviral activity against HCV infected in human Huh7.5.1 cells assessed as decrease in viral infection. It is filed as functional, organism-based, Hepacivirus hominis. The conditions noted are these: Huh-7.5.1.
The test system of a further assay is dengue virus type 2. Nature of the assay: Antiviral activity agaisnt DENV-2 strain New Guinea C infected with hamster BHK-21 cells assessed as reduction in viral growth. It is filed as functional, organism-based.
Assay [2] can be described thus: Inhibition of HCV RNA. It is filed as functional, Hepacivirus hominis.
In assay [3] the test system is Ebolavirus. Nature of the assay: Antiviral activity against Ebola virus infected in human HeLa cells assessed as reduction in viral cytopathic effect. It counts as functional, organism-based. The settings on record: Orthoebolavirus. Background: Cytopathic effects are the visible damage that an infection or toxin causes in cultured cells.
Assay [4] addresses Replicase polyprotein 1ab (Severe acute respiratory syndrome-related coronavirus, UniProt P0C6X7). In words: Inhibition of SARS-CoV-1 Main Protease.
The nature of assay [5]: Inhibition of MERS-CoV Main protease. Also noted: species or system Middle East respiratory syndrome-related coronavirus.
For assay [6], the target named is Replicase polyprotein 1ab (Severe acute respiratory syndrome coronavirus 2, UniProt P0DTD1). In words: Inhibition of SARS-CoV-2 main protease.
Assay [7] has as its system Hepatitis C virus. Nature of the assay: Antiviral activity against HCV infected in human Huh-7 cells assessed as reduction in viral replication. It is filed as functional, organism-based, Hepacivirus hominis.
For assay [8], the system named is Hepatitis C virus. Nature of the assay: Antiviral activity against HCV infected in Huh-7 assessed as reduction in viral RNA replication at 0.5 nM relative to control. It is filed as functional, Hepacivirus hominis. Also noted: scale not given: the % may be the effect or the level left.
Assay [9] has as its system Hepatitis C virus. Nature of the assay: Antiviral activity against HCV infected in human Huh-7.5.1 cells assessed as reduction in viral infection incubated for 48 hrs. The conditions noted are these: Huh-7.5.1, 48 h. It counts as functional, organism-based, Hepacivirus hominis.
Assay [10] deals with Chikungunya virus. In words: Antiviral activity against CHIKV infected in HEK293T cells. It is filed as functional, organism-based. The settings on record: HEK-293T.
Assay [11] concerns Chikungunya virus. In words: Antiviral activity against CHIKV infected in Vero 76 cells assessed as reduction in cytopathic effect. It is filed as functional, organism-based.
Assay [12] concerns Hepatitis C virus. In words: Antiviral activity against HCV infected in Huh-7 assessed as inhibition of HCV RNA replication at 5 nM relative to control. It is filed as functional, Hepacivirus hominis. Also noted: scale not given: the % may be the effect or the level left.
For assay [13], the target named is Spike glycoprotein/Angiotensin-converting enzyme 2 (Severe acute respiratory syndrome coronavirus 2, UniProt P0DTC2+Q9BYF1). In words: Inhibition of SARS-CoV-2 spike protein RBD- human ACE2 interaction incubated for 1 hr by colorimetric ELISA assay.
The next assay concerns SARS-CoV-2. In words: Antiviral activity against SARS-CoV-2. It is filed as functional, organism-based, Severe acute respiratory syndrome coronavirus 2.
In assay [14] the test system is Ebolavirus. Nature of the assay: Antiviral activity against pseudotyped Ebola virus infected in HeLa cells assessed as reduction in viral infection incubated for 48 hrs by firefly luciferase assay. It counts as functional, organism-based. The conditions noted are these: Orthoebolavirus.

Where a SMILES comes first, the peptide text is derived from it.

In general, IC50 refers to the point on the concentration scale where inhibition reaches its midpoint. As usually defined, the EC50 is the concentration at which the effect is half-maximal.

Sequence of Spike glycoprotein/Angiotensin-converting enzyme 2 (Q9BYF1 18-805 limits assumed, other chains not shown): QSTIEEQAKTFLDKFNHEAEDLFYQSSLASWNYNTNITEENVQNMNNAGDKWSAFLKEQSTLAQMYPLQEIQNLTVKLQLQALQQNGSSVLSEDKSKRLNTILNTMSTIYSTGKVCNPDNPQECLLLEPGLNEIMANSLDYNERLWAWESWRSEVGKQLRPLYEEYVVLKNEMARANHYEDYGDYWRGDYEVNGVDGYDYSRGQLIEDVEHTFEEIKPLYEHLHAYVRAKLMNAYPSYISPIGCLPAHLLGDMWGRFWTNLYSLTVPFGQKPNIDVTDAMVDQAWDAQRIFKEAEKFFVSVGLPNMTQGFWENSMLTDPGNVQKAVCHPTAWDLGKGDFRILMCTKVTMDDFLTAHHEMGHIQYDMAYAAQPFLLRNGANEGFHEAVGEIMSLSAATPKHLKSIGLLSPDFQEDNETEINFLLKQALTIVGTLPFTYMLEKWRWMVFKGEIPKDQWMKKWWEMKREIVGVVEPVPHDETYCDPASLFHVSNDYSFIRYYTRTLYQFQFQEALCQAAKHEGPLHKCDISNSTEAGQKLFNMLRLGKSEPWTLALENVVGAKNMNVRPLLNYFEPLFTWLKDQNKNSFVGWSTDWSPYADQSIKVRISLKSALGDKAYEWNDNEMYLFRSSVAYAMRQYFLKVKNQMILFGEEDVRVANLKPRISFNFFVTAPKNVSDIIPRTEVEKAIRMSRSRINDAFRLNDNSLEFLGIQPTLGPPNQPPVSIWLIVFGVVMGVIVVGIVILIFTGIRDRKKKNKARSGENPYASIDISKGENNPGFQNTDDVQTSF

Take `CC(C)[C@H](NC(=O)[C@H](Cc1c[nH]c2ccccc12)NC(=O)[C@@H](NC(=O)[C@H](C)N)[C@@H](C)O)C(=O)N[C@@H](CS)C(=O)NCC(=O)N1CCC[C@H]1C(=O)N[C@@H](CS)C(=O)N[C@H](C(=O)O)[C@@H](C)O` (H-ATWVCGPCT-OH): in the assay on Hepatitis C virus [1], the 50% inhibitory concentration (IC50) is 5500 nM.
In the case of `Clc1ccc(-c2ccc(-c3nc(NCc4cccnc4)nc4ccccc34)s2)cc1`, the EC50 with dengue virus type 2 came out at 68 nM.
For `COc1cc(C[C@@]2(O)C(=O)OC[C@@H]2Cc2ccc(OC)c(OC)c2)ccc1O`, the half-inhibitory concentration (IC50) in assay [2] was 670 nM.
Regarding `COC(=O)c1ccc(COc2ccccc2CN2CCN(C(=O)CNC(=O)CC34CC5CC(CC(C5)C3)C4)CC2)cc1`, the 50% inhibitory concentration (IC50) with Ebolavirus [3] was 130 nM.
As for `Cc1cc2nc3s/c(=C/c4ccc(-c5cccc(C(=O)O)c5)o4)c(=O)n3c2cc1C`, the IC50 was 59 nM in [4], 75 nM in assay [5] and 55 nM in assay [6].
As for `C[C@H]1O[C@@H](O[C@H]2CC[C@@]3(C)[C@@H](CC[C@]4(C)[C@@H]3C=CC3=C5CC(C)(C)CC[C@]5(CO)[C@H](O)C[C@]34C)[C@]2(C)CO)[C@H](O)[C@@H](O[C@@H]2O[C@H](CO)[C@@H](O)[C@H](O)[C@H]2O)[C@H]1O`, the EC50 with Hepatitis C virus [7] was 20700 nM.
With `CC[C@H](C)[C@H](NC(=O)[C@H](C)NC(=O)[C@H](Cc1c[nH]c2ccccc12)NC(=O)[C@H](CO)NC(=O)[C@H](C)N)C(=O)N[C@@H](CCCCN)C(=O)N[C@@H](Cc1c[nH]c2ccccc12)C(=O)N[C@@H](CCC(=O)O)C(=O)N[C@@H](Cc1ccc(O)cc1)C(=O)N[C@H](C(=O)N[C@H](C(=O)N[C@@H](CC(C)C)C(=O)N[C@@H](CC(C)C)C(=O)N[C@@H](Cc1ccccc1)C(=O)N[C@@H](CC(C)C)C(=O)N[C@@H](CC(C)C)C(=O)O)C(C)C)C(C)C` (H-ASWAIKWEYVVLLFLL-OH), in the assay on Hepatitis C virus [8], the Activity is listed as 60%. For the same compound, the half-inhibitory concentration (IC50) in the assay with Hepatitis C virus [9] was determined as 51000 nM.
In the case of `COc1cc(OC)c2c(c1)O[C@@]1(c3ccc(Br)cc3)[C@H](c3ccccc3)C[C@@H](O)[C@@]21O`, 22.4 nM corresponded to half-maximal inhibition with Chikungunya virus [10] (IC50).
On to `COc1ccc2cc3[n+](cc2c1OC)CCc1cc2c(cc1-3)OCO2` [BERBERINE], for which the EC50 in the assay with Hepatitis C virus [7] amounted to 7870 nM.
As to `Cc1ccc(C(=O)Nc2ccc(S(=O)(=O)O)c3cc(S(=O)(=O)O)cc(S(=O)(=O)O)c23)cc1NC(=O)c1cccc(NC(=O)Nc2cccc(C(=O)Nc3cc(C(=O)Nc4ccc(S(=O)(=O)O)c5cc(S(=O)(=O)O)cc(S(=O)(=O)O)c45)ccc3C)c2)c1` [SURAMIN], the IC50 in the assay on Chikungunya virus [11] stood at 5680 nM.
Regarding `COc1c(NC(=O)C(=O)c2ccc(OCCN3CCOCC3)c3ccccc23)cc(C(C)(C)C)cc1NS(C)(=O)=O` [ITX-5061 FREE BASE], the EC50 in the assay on Hepatitis C virus [7] is 0.1 nM.
For the compound `CSCC[C@H](NC(=O)[C@H](Cc1c[nH]c2ccccc12)NC(=O)[C@@H](NC(=O)[C@H](CS)NC(=O)CNC(=O)[C@H](Cc1ccccc1)NC(=O)[C@H](Cc1c[nH]c2ccccc12)NC(=O)[C@H](CO)NC(=O)CNC(=O)[C@@H](N)CCC(N)=O)[C@@H](C)O)C(=O)N[C@@H](CC(N)=O)C(=O)N[C@@H](CO)C(=O)N[C@H](C(=O)NCC(=O)N[C@@H](Cc1ccccc1)C(=O)O)[C@@H](C)O`, the Activity in the assay with Hepatitis C virus [12] is given as 50%.
With `CCOC(=O)c1c(CSc2ccccc2)n(C)c2cc(Br)c(O)c(CN(C)C)c12` [UMIFENOVIR], the IC50 in the assay with Chikungunya virus [11] is under 20900 nM.
On to `CN1C(=O)c2ccccc2[S+]([O-])c2cc([N+](=O)[O-])ccc2S1(=O)=O` (stereo not given), for which, in assay [13], the IC50 amounted to 670 nM.
With `O=C(CC12CC3CC(CC(C3)C1)C2)NCC(=O)N1CCN(Cc2ccccc2)CC1`, in the assay with Ebolavirus [3], the concentration for half-maximal inhibition (IC50) turned out to be 1600 nM.
Consider IVERMECTIN, for which, in the assay with SARS-CoV-2, it took 4110 nM to reach a half-maximal effect (EC50).
In the case of `FC(C1=Nc2ccccc2N=C(c2ccccc2)C1)C(F)(F)F` (stereo not given), the IC50 with Ebolavirus [14] was found to be 10000 nM.
